Key:
[1] = tested on: lipid peroxidation in rat brain homogenate; test: Autooxidation (lipid peroxidation) of the rat brain homogenate, MDA by TBA method; assay type: biochemical, Rats of Wistar strain; details: for Inhibition (%) of lipid peroxidation in rat brain homogenate: 37° C., 30 minutes, pH 7.4
Experimental: Rats of Wistar strain (male, 11 weeks old) were used. The animal was decapitated and the brain was enucleated and homogenized in 4 ml/gram of 50 mM phosphate-buffered saline (pH 7.4). The homogenate was centrifuged (1000 g, 10 min.) and the supernatant was harvested. The test solution was set to 10^-7 -10^-4 M (dissolved at a final ethanol concentration of 1%). To 100 μl of the test solution was added 200 μl of the brain homogenate as well as 700 μl of phosphate-buffered saline and the mixture was incubated at 37° C. for 30 minutes for lipid peroxidation. The reaction was stopped with 200 μl of 35% perchloric acid and centrifuged (1300 g, 10 min.) and the MDA (malondialdehyde) value of the supernatant was determined by the TBA (thiobarbituric acid) method.

[2] = DPPH (1,1-Diphenyl-2-picrylhydrazyl) radical scavenging action; assay type: biochemical; details: for Inhibition (%) (scavenging effect on DPPH radical): 20 minutes, 517 nm
Experimental: To 2.7 ml of 0.11 mM-DPPH/ethanol was added 300 μl of the test solution and the mixture was stirred and allowed to stand for 20 minutes. Then, the absorbance was measured at 517 nm. The radical scavenging effect (%) of each test solution was calculated by means of the following equation. [formula]

Cc1c(C)c2c(c(C)c1OP(=O)([O-])O[C@@H](CO)[C@H]1OC(=O)C(O)=C1O)CCC(C)(CCCC(C)CCCC(C)CCCC(C)C)O2.[K+] (stereo partly drawn) [the present compound, L-ascorbic acid 5-[3,4-dihydro-2,5,7,8-tetramethyl-2-(4,8,12-trimethyltridecyl)-2H-1-benzopyran-6-yl hydrogen phosphate] potassium]
Inhibition (%) of lipid peroxidation in rat brain homogenate ([1]; 10^-4 M): 98.5% | Inhibition (%) of lipid peroxidation in rat brain homogenate ([1]; 10^-5 M): 98.7% | Inhibition (%) of lipid peroxidation in rat brain homogenate ([1]; 10^-6 M): 93.3% | inhibition of autooxidation of the rat brain homogenate (in words) ([1]; 10^-7 -10^-4 M): inhibits autooxidation of the rat brain homogenate to a remarkable extent | Inhibition (%) of lipid peroxidation in rat brain homogenate ([1]; 10^-7 M): 24.7% | Inhibition (%) (scavenging effect on DPPH radical) ([2]; 5 × 10^-5 M): 71.7% | Inhibition (%) (scavenging effect on DPPH radical) ([2]; 10^-3 M): 96.7% | Inhibition (%) (scavenging effect on DPPH radical) ([2]; 10^-4 M): 97.3% | Inhibition (%) (scavenging effect on DPPH radical) ([2]; 10^-5 M): 13.1% | scavenging of DPPH radicals (in words) ([2]; 10^-5 to 10^-3 M): scavenges DPPH radicals to a remarkable extent
